These results are taken from patent US11286268B1, “EIF4E-inhibiting compounds and methods” (EFFECTOR THERAPEUTICS, INC., priority 2019, dated 2022).

Like-named read-outs stand apart in the source and are kept apart here.

For the experiment, the target named is recombinant eIF4E (Homo sapiens (Human), UniProt P06730). Nature of the experiment: Fluorescence polarization competition assay for eIF4E binding potency. An outline of the steps:
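IC50 values reflect 50% displacement of 20 nM EDA-m7GDP-ATTO-550 from 75 nM eIF4E, measured by fluorescence polarization after 30 min at room temperature. Buffer: 20 mM Tris pH 7.5, 100 mM NaCl, 1 mM DTT, 0.02% Tween-20; 1% DMSO.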
Background: In fluorescence polarisation assays a small probe gives low polarisation when free and higher when bound to something large.

The mark [1] stands for this setting: inhibition of eIF4E/EDA-m7GDP-ATTO-550 binding, calculated IC50 values, Table 4B, read-out: IC50.
Setting [2] is: fluorescence polarization competition, 75 nM recombinant eIF4E, 20 nM EDA-m7GDP-ATTO-550, IC50 class, read-out: elF4E FP.
Setting [3] is: inhibition of eIF4E/EDA-m7GDP-ATTO-550 binding by 50%, Table 4B calculated values, read-out: IC50.

Sequence of recombinant eIF4E (P06730 whole entry): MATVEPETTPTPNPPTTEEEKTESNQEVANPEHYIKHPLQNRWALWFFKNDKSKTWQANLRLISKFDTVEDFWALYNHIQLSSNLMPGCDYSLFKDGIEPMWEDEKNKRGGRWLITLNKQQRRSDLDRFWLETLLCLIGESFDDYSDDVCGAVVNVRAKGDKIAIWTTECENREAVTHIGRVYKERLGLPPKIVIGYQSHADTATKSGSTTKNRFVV

With `Cc1nc2cnc(N3CCN(C4CC4)C(C(F)(F)F)C3)c(C#N)c2c(=O)n1CCOc1ccc(Cl)cc1-c1ccnc2c(C(=O)O)csc12` (stereo not drawn) [compound 1438], under setting [1], the IC50 was 40.8 nM.

Turning to `Cc1nc2cnc(N3CCN(C4(CCC(F)(F)F)CC4)CC3)c(C#N)c2c(=O)n1CCOc1ccc(Cl)cc1-c1ccnc2c(C(=O)O)csc12` [compound 1401], the IC50 under setting [1] is 12.7 nM.

As to `Cc1nc2cc(S(=O)(=O)N(C)C)c(F)c(C#N)c2c(=O)n1CCOc1ccc(Cl)cc1-c1ccnc2c(C(=O)O)csc12` [compound 280], the IC50 was below 50 nM under setting [2] and 41.2 nM under setting [3]. The corresponding values for `Cc1nc2cc(C(F)(F)F)c(N3CCN(C4CC4)CC3)c(C#N)c2c(=O)n1CCOc1ccc(Cl)cc1-c1ccnc2c(C(=O)NS(C)(=O)=O)csc12` [compound 1179] are below 50 nM and 14.7 nM.

For `Cc1nc2cnc(N(C)C3CCN(C4(C(F)F)COC4)CC3)c(C#N)c2c(=O)n1CC#Cc1ccc(Cl)cc1-c1ccnc2c(C(=O)O)csc12` [compound 1182], the IC50 was below 50 nM under setting [2] and 13.6 nM under setting [3]. As to `Cc1nc2cc(C(F)(F)F)c(N3CCC4(CC3)CN(CC(F)F)C4)c(C#N)c2c(=O)n1CCOc1ccc(Cl)cc1-c1ccnc2c(C(=O)O)csc12` [compound 1912], the IC50 under setting [1] is 5.96 nM.

With `Cc1nc2cnc(N(C)C3CCN(C(C)(C)C(F)(F)F)CC3)c(C#N)c2c(=O)n1CC#Cc1ccc(Cl)cc1-c1ccnc2c(C(=O)O)csc12` [compound 1507], the IC50 under setting [1] is 16 nM. `Cc1cc(-c2cc(Cl)ccc2OCCn2c(C)nc3cc4c(c(C#N)c3c2=O)C(N(C)C)CC4)c2scc(C(=O)O)c2n1` (stereo not drawn) [compound 612]: the IC50 by setting is: under setting [2], below 50 nM; under setting [3], 43.8 nM. On to `C=S(C)(=O)c1cc(C#N)c2c(=O)n(CCOc3ccc(Cl)cc3-c3ccnc4c(C(=O)O)csc34)c(C)c(F)c2c1` (stereo not drawn) [compound 274], for which the IC50 under setting [2] was below 50 nM and the IC50 under setting [3] was 18.8 nM.

Turning to `Cc1nc2cnc(N(C)C3CCN(C4CC(F)(F)C4)CC3)c(C#N)c2c(=O)n1CC#Cc1ccc(Cl)cc1-c1ccnc2c(C(=O)NS(=O)(=O)C(F)(F)F)csc12` [compound 1818], under setting [1], the IC50 was 13 nM.

As for `N#Cc1cc(F)cc2nc(C(F)F)n(CCOc3ccc(Cl)cc3-c3ccnc4c(C(=O)O)csc34)c(=O)c12` [compound 1938], the IC50 under setting [1] is 46.3 nM.

For the molecule `Cc1sc2c(-c3cc(Cl)ccc3C#CCn3c(C)nc4cc(C(F)(F)F)c(N5CCN(C)CC5)c(C#N)c4c3=O)ccnc2c1C(=O)O` [compound 1271], the IC50 under setting [1] is 13.1 nM. Consider `Cc1c(CCOc2ccc(Cl)cc2-c2ccnc3c(C(=O)O)csc23)c(=O)c2c(C#N)c(Cl)c(C(F)(F)F)cc2n1C` [compound 361], for which the IC50 is, setting by setting: under setting [2], 50 to 1000 nM; under setting [3], 68.4 nM.

With `Cc1nc2cc(C(F)(F)F)c(CN(C)C)cc2c(=O)n1CCOc1ccc(Cl)cc1-c1ccnc2c(C(=O)O)csc12` [compound 408], the IC50 was below 50 nM under setting [2] and 31.1 nM under setting [3]. Regarding `Cc1cc(-c2cc(Cl)ccc2OCCn2c(C)nc3cc(Cl)c(N4C[C@@H](C)N(C)[C@@H](C)C4)c(C#N)c3c2=O)c2sc(C)c(C(=O)O)c2n1` [1090a], under setting [3], the IC50 is 38.3 nM. For the molecule `Cc1cc(-c2cc(Cl)ccc2OCCn2c(C)nc3cnc(N[N+](C)(C)C)c(C#N)c3c2=O)c2scc(C(=O)O)c2n1` [compound 1631], under setting [1], the IC50 was 16.1 nM. For `N#Cc1cc2c(=O)n(CCOc3ccc(Cl)cc3-c3ncc(C(=O)O)s3)cnc2cn1` [compound 52], the IC50 was above 1000 nM under setting [2] and above 3000 nM under setting [3]. The corresponding values for `Cc1c(C(F)F)c2cc(C(F)(F)F)cc(C#N)c2c(=O)n1CCOc1ccc(Cl)cc1-c1ccnc2c(C(=O)O)csc12` [compound 269] are below 50 nM and 15.6 nM. Consider `Cc1cc(-c2cc(Cl)ccc2OCCn2c(C)nc3cnc(C(C)(C)C)c(C#N)c3c2=O)c2scc(C(=O)O)c2n1` [compound 420], for which the IC50 under setting [2] was below 50 nM and the IC50 under setting [3] is 9.6 nM. With `Cc1cc(-c2cc(Cl)ccc2OCCn2c(C)nc3cnc(C#N)cc3c2=O)c2scc(C(=O)NS(C)(=O)=O)c2n1` [compound 598], the IC50 reads like this: under setting [2], 50 to 1000 nM; under setting [3], 57.2 nM. Take `Cc1cc(-c2cc(Cl)ccc2OCCn2c(C)nc3cnc(OCc4ccccn4)c(C#N)c3c2=O)c2scc(C(=O)O)c2n1` [compound 1039]: the IC50 is, setting by setting: under setting [2], below 50 nM; under setting [3], 21.7 nM. On to `C#Cc1c(C(=O)O)cccc1-c1cc(Cl)ccc1OCCn1cnc2cc(C(F)(F)F)cc(C#N)c2c1=O` [compound 159], for which the IC50 was below 50 nM under setting [2] and 30.9 nM under setting [3]. For `Cc1nc2cc(Cl)c(C(F)F)c(C#N)c2c(=O)n1CCOc1ccc(Cl)cc1-c1ccnc2c(C(=O)O)csc12` [compound 1951], the IC50 under setting [1] was 19.9 nM. Consider `Cc1cc(-c2cc(Cl)ccc2OCCn2c(C)nc3cc(C(F)(F)F)c(CN4CC5CCC(C4)N5C)c(C#N)c3c2=O)c2scc(C(=O)O)c2n1` [compound 740], for which the IC50 under setting [2] is below 50 nM and the IC50 under setting [3] was 39.2 nM. In the case of `Cc1cc(-c2cc(Cl)ccc2OCCn2c(C)nc3cc(OC(F)F)c(CCN(C)C)c(C#N)c3c2=O)c2scc(C(=O)O)c2n1` [compound 592], the IC50 under setting [2] is below 50 nM and the IC50 under setting [3] was 10.3 nM. As for `Cc1nc2c(c(C#N)cc3ccccc32)c(=O)n1CCOc1ccc(Cl)cc1-c1ccnc2c(C(=O)O)csc12` [compound 1946], the IC50 under setting [1] is 44.7 nM. Turning to `Cc1cc(-c2cc(Cl)ccc2OCCn2c(C)nc3cc(C(F)(F)F)c(-c4ccncc4C)c(C#N)c3c2=O)c2scc(C(=O)O)c2n1` [compound 901], the IC50 by setting is: under setting [2], below 50 nM; under setting [3], 45.6 nM. The corresponding values for `Cc1nc2c(N3CCN(C)CC(F)(F)C3)ncc(C#N)c2c(=O)n1CCOc1ccc(Cl)cc1-c1ccnc2c(C(=O)O)csc12` [compound 838] are below 50 nM and 38.7 nM. Regarding `Cc1nc2cc(C(F)(F)F)c(N3CC4(C3)CN(C3CC3)C4)c(C#N)c2c(=O)n1CCOc1ccc(Cl)cc1-c1ccnc2c(C(=O)NS(C)(=O)=O)csc12` [compound 1930], the IC50 under setting [1] is 4.81 nM. `Cc1cc(-c2cc(Cl)ccc2OCCn2c(C)nc3c(C)nc(-c4cccc(C(F)(F)F)c4)c(C#N)c3c2=O)c2scc(C(=O)O)c2n1` [compound 925]: the IC50 under setting [2] was below 50 nM and the IC50 under setting [3] was 43.1 nM. `Cc1nc2cnc(N(C)C3CC4(C3)CN(C(C)(C)CF)C4)c(C#N)c2c(=O)n1CC#Cc1ccc(Cl)cc1-c1ccnc2c(C(=O)O)csc12` [compound 828]: the IC50 reads like this: under setting [2], below 50 nM; under setting [3], 5.72 nM. With `Cc1nc(-c2ccccc2C(F)(F)F)c(C#N)c2c(=O)n(CCOc3ccc(Cl)cc3-c3ccnc4c(C(=O)O)csc34)c(C)nc12` [compound 1148], the IC50 under setting [2] is below 50 nM and the IC50 under setting [3] is 35.6 nM. `Cc1cc(-c2cc(Cl)ccc2OCCn2c(C)nc3cc(Cl)c(-c4ncco4)c(C#N)c3c2=O)c2scc(C(=O)O)c2n1` [compound 1006]: the IC50 is below 50 nM under setting [2] and 18.2 nM under setting [3]. Take `Cn1ccc2c(=O)n(CCOc3ccc(Cl)cc3-c3cccc(C(=O)O)c3)cnc21` [compound 68]: the IC50 is, setting by setting: under setting [2], above 1000 nM; under setting [3], 64300 nM. As for `Cc1nc2cnc(N(C)C3CCN([C@H]4C[C@H](OC(F)F)C4)CC3)c(C#N)c2c(=O)n1CC#Cc1ccc(Cl)cc1-c1ccnc2c(C(=O)NS(=O)(=O)C3COC3)csc12` [compound 1762], the IC50 under setting [1] is 25 nM.
